Measurements from patent publication US20260327243A1, “SPIRO-HETEROCYCLIC INHIBITORS OF KRAS G12C MUTANT PROTEINS AND USES THEREOF” (AMGEN INC., priority 2023, published 2026).

target: KRAS^G12C (Homo sapiens, UniProt P01116, C118A/G12C); test: Coupled Nucleotide Exchange Assay; assay type: biochemical; conditions: GDP-bound KRAS (aa 1-169) G12C/C118A; 2 h compound pre-incubation; SOS-mediated exchange, 30 min; cRAF binding (AlphaLISA)
Procedure: The KRAS^G12C coupled nucleotide exchange assay allows for the screening and profiling of KRAS^G12C antagonists/inhibitors by monitoring the binding of an effector protein (e.g., a Ras binding domain of Raf1, RBD-cRaf) to KRAS^G12C. Purified GDP-bound KRAS protein (aa 1-169), containing both G12C and C118A amino acid substitutions and an N-terminal His-tag, was pre-incubated in assay buffer (25 mM HEPES pH 7.4, 10 mM MgCl2, 0.01% Triton X-100, either with or without 0.1% BSA) with serially diluted compound for 2 h. For all subsequent steps, BSA was omitted and DTT was added to the reaction buffer at a final concentration of 1 mM. Following compound pre-incubation, purified SOS protein (aa 564-1049) and GTP (Roche 10106399001) were added to the assay wells and incubated for an additional 30 min. To determine the extent of inhibition of SOS-mediated nucleotide exchange, purified GST-tagged cRAF (aa 1-149), nickel chelate AlphaLISA acceptor beads (PerkinElmer AL108R), and AlphaScreen glutathione donor beads (PerkinElmer 6765302) were added to the assay wells and incubated for 5-30 min. The assay plates were then read on a plate reader measuring luminescence signal. Signal intensity of compound-containing wells were normalized to DMSO control, and data were analyzed using a 4-parameter logistic model to calculate IC50 values.

Sequence of KRAS^G12C (P01116 1-169 isoform P01116-2 G12C/C118A): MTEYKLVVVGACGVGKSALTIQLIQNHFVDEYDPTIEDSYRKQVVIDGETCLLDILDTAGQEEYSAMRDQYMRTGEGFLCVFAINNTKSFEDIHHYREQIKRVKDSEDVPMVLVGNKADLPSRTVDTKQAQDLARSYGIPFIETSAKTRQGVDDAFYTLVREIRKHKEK

Row | SMILES | IC50 [µM]
1 | C=CC(=O)N1CCN(C2CN(c3cc(N4CCC5(CCCO5)[C@H](CO)C4)nc(C(F)(F)F)c3C#N)C2)CC1 (single isomer, unassigned) [Compound 3-062-1] | 4.66
2 | C=CC(=O)N1CCN(C2CN(c3cc(N4CCC5(CC4)O[C@@H](C)C=C5Cl)nc(C(F)(F)F)c3C#N)C2)CC1 (single isomer, unassigned) [Compound 3-067-2] | 0.867
3 | C=CC(=O)N1CCN([C@@H]2CN(c3cc(N4CC[C@@]5(CC4C)OCCc4ncsc45)nc(C(F)(F)F)n3)[C@@H]2C)CC1 (single isomer, unassigned) [Compound 3-091-2] | 0.883
4 | C=CC(=O)N1CCN([C@@H]2CN(c3cc(N4CCC5(C[C@@H]4C)OCC=C5C)nc(C(F)(F)F)n3)[C@@H]2C)CC1 (stereo partly drawn) [Compound 3-006, 1-(4-((2R,3R)-1-(6-(4,7-dimethyl-1-oxa-8-azaspiro[4.5]dec-3-en-8-yl)-2-(trifluoromethyl)pyrimidin-4-yl)-2-methylazetidin-3-yl)piper-azin-1-yl)prop-2-en-1-one] | 2.24
5 | C=CC(=O)N1CCN([C@@H]2CN(c3cc(N4CCC5(C[C@@H]4C)OCC=C5C)nc(C(F)F)n3)[C@@H]2C)CC1 (stereo partly drawn) [Compound 3-007, 1-(4-((2R,3R)-1-(2-(difluorometh-yl)-6-(4.7-dimethyl-1-oxa-8-aza-spiro[4.5]dec-3-en-8-yl)pyrimidin-4-yl)-2-methyl-azetidin-3-yl)piper-azin-1-yl)-prop-2-en-1-one] | 6.57
6 | C=CC(=O)N1CCN([C@@H]2CN(c3cc(N4CCC5(CC4)OCCC=C5C)nc(C(F)F)n3)[C@@H]2C)CC1 [Compound 3-009, 1-(4-((2R,3R)-1-(2-(difluorometh-yl)-6-(5-methyl-1-oxa-9-azaspiro [5.5]undec-4-en-9-yl)-pyrimidin-4-yl)-2-methylazetidin-3-yl)piper-azin-1-yl)prop-2-en-1-one] | 0.884
7 | C=CC(=O)N1CCN([C@@H]2CN(c3cc(N4CCC5(C=CCO5)CC4)nc(C(F)(F)F)c3C#N)[C@@H]2C)CC1 [Compound 3-010, 4-((2R,3R)-3-(4-acryloylpiperazin-1-yl)-2-methylazetidin-1-yl)-6-(1-oxa-8-azaspiro[4.5]dec-3-en-8-yl)-2-(trifluoromethyl)nicotinonitrile] | 0.66
8 | C=CC(=O)N1CCN([C@@H]2CN(c3cc(N4CCC5(C=CCO5)CC4)nc(C(F)(F)F)n3)[C@@H]2C)CC1 [Compound 3-011, 1-(4-((2R,3R)-1-(6-(1-oxa-8-aza-spiro[4.5]dec-3-en-8-yl)-2-(tri-fluoromethyl)pyrimidin-4-yl)-2-methylazetidin-3-yl)piperazin-1-yl)prop-2-en-1-one] | 0.964
9 | C=CC(=O)N1CCN([C@@H]2CN(c3cc(N4CCC5(C=CCO5)CC4)nc(C(F)F)n3)[C@@H]2C)CC1 [Compound 3-012, 1-(4-((2R,3R)-1-(2-(difluorometh-yl)-6-(1-oxa-8-azaspiro[4.5]dec-3-en-8-yl)pyrimidin-4-yl)-2-methyl-azetidin-3-yl)piperazin-1-yl)prop-2-en-1-one] | 2.54
10 | C=CC(=O)N1CCN(C2CN(c3cc(N4CCC5(CC4)c4ccccc4C(=O)N5C)nc(C(F)(F)F)n3)C2)CC1 [Compound 3-013] | 5.64
11 | C=CC(=O)N1CCN(C2CN(c3cc(N4CCC5(CC4)COc4ccccc45)nc(C(F)(F)F)n3)C2)CC1 [Compound 3-018, 1-(4-(1-(6-(2H-spiro[benzofuran-3,4′-piperidin]-1′-yl)-2-(trifluoro-methyl)pyrimidin-4-yl)azetidin-3-yl)piperazin-1-yl)prop-2-en-1-one] | 1.98
12 | C=CC(=O)N1CCN(C2CN(c3cc(N4CCC5(CC4)COC5)nc(C(F)(F)F)c3C#N)C2)CC1 [Compound 3-019, 4-(3-(4-acryloylpiperazin-1-yl)-azetidin-1-yl)-6-(2-oxa-7-azaspiro [3.5]nonan-7-yl)-2-(trifluorometh-yl)nicotinonitrile] | 4.4
13 | C=CC(=O)N1CCN([C@@H]2CN(c3cc(N4CCC5(CCC(=O)N5C)CC4)nc(C(F)(F)F)n3)[C@@H]2C)CC1 [Compound 3-020, 8-(6-((2R,3R)-3-(4-Acryloylpiperazin-1-yl)-2-methylazetidin-1-yl)-2-(trifluoromethyl)pyrimidin-4-yl)-1-methyl-1,8-diazaspiro[4.5]decan-2-one] | 1.6
14 | C=CC(=O)N1CCN([C@@H]2CN(c3cc(N4CCC5(C=CCOC5)CC4)nc(C(F)(F)F)n3)[C@@H]2C)CC1 [Compound 3-021, 1-(4-((2R,3R)-1-(6-(2-Oxa-9-azaspiro[5.5]undec-4-en-9-yl)-2-(trifluoromethyl)pyrimidin-4-yl)-2-methylazetidin-3-yl)piperazin-1-yl) prop-2-en-1-one] | 3.86
15 | C=CC(=O)N1CCN([C@@H]2CN(c3cc(N4CCC5(CC4)C(F)(F)C54CC4)nc(C(F)(F)F)n3)[C@@H]2C)CC1 [Compound 3-022, 1-(4-((2R,3R)-1-(6-(10.10-difluoro-7-azadispiro[2.0.5^4.1^3]decan-7-yl)-2-(trifluoromethyl)pyrimidin-4-yl)-2-methylazetidin-3-yl)piperazin-1-yl)prop-2-en-1-one] | 5.61
16 | C=CC(=O)N1CCN([C@@H]2CN(c3cc(N4CCC5(CC4)CC5CN4CCCC4)nc(C(F)(F)F)n3)[C@@H]2C)CC1 (stereo partly drawn) [Compound 3-023, 1-(4-((2R,3R)-2-methyl-1-(6-(1-(pyrrolidin-1-ylmethyl)-6-azaspiro[2.5]octan-6-yl)-2-(trifluoromethyl)pyrimidin-4-yl)azetidin-3-yl)piperazin-1-yl)prop-2-en-1-one] | 7.27
17 | C=CC(=O)N1CCN(C2CN(c3cc(N4CCC5(CC4)COCCO5)nc(C(F)(F)F)c3C#N)C2)CC1 [Compound 3-024, 4-(3-(4-acryloylpiperazin-1-yl)azetidin-1-yl)-6-(1,4-dioxa-9-azaspiro[5.5]undecan-9-yl)-2-(trifluoromethyl)nicotinonitrile] | 6.1
18 | C=CC(=O)N1CCN(C2CN(c3cc(N4C5CCC4CC4(CCCO4)C5)nc(C(F)(F)F)n3)C2)CC1 (centres unmarked) [Compound 3-025, 1-(4-(1-(6-(dihydro-3′H-8-azaspiro[bicyclo[3.2.1]octane-3,2′-furan]-8-yl)-2-(trifluoromethyl)pyrimidin-4-yl)azetidin-3-yl)piperazin-1-yl)prop-2-en-1-one] | 3.72
19 | C=CC(=O)N1CCN([C@@H]2CN(c3cc(N4C5CCC4CC4(CCCO4)C5)nc(C(F)(F)F)n3)[C@@H]2C)CC1 (stereo partly drawn) [Compound 3-026, 1-(4-((2R,3R)-1-(6-(dihydro-3′H-8-azaspiro[bicyclo[3.2.1]octane-3,2′-furan]-8-yl)-2-(trifluoromethyl)pyrimidin-4-yl)-2-methylazetidin-3-yl)piperazin-1-yl)prop-2-en-1-one] | 1.95
20 | C=CC(=O)N1CCN(C2(C)CN(c3cc(N4CCC5(CC4)OCc4ccccc45)nc(C(F)(F)F)n3)C2)CC1 [Compound 3-027, 1-(4-(1-(6-(3H-spiro[isobenzofuran-1.4′-piperidin]-1′-yl)-2-(trifluoromethyl)pyrimidin-4-yl)-3-methylazetidin-3-yl)piperazin-1-yl)prop-2-en-1-one] | 6.15
21 | C=CC(=O)N1CCN(C2CN(c3cc(N4CCC5(CC4)CC(C)(O)CO5)nc(C(F)(F)F)c3C#N)C2)CC1 (centres unmarked) [Compound 3-029, 4-(3-(4-acryloylpiperazin-1-yl)azetidin-1-yl)-6-(3-hydroxy-3-methyl-1-oxa-8-azaspiro[4.5]decan-8-yl)-2-(trifluoromethyl)nicotinonitrile] | 8.68
22 | C=CC(=O)N1CCN(C2CN(c3cc(N4CCC5(CC4)CC(C#N)CO5)nc(C(F)(F)F)c3C#N)C2)CC1 (centres unmarked) [Compound 3-030, 8-(4-(3-(4-acryloylpiperazin-1-yl)azetidin-1-yl)-5-cyano-6-(trifluoromethyl)pyridin-2-yl)-1-oxa-8-azaspiro[4.5]decane-3-carbonitrile] | 9.59
23 | C=CC(=O)N1CCN(C2CN(c3cc(N4CCC5(CC4)OCCC5=O)nc(C(F)(F)F)c3C#N)C2)CC1 [Compound 3-031, 4-(3-(4-acryloylpiperazin-1-yl)azetidin-1-yl)-6-(4-oxo-1-oxa-8-azaspiro[4.5]decan-8-yl)-2-(trifluoromethyl)nicotinonitrile] | 9.25
24 | C=CC(=O)N1CCN(C2CN(c3cc(N4CCC5(CC4)OC(=O)NC5(C)C)nc(C(F)(F)F)c3C#N)C2)CC1 [Compound 3-032, 4-(3-(4-acryloylpiperazin-1-yl)azetidin-1-yl)-6-(4,4-dimethyl-2-oxo-1-oxa-3,8-diazaspiro[4.5]decan-8-yl)-2-(trifluoromethyl)nicotinonitrile] | 2.75
25 | C=CC(=O)N1CCN(C2CN(c3cc(N4CCC5(CC4)CN(CC)C(=O)O5)nc(C(F)(F)F)c3C#N)C2)CC1 [Compound 3-033, 4-(3-(4-acryloylpiperazin-1-yl)azetidin-1-yl)-6-(3-ethyl-2-oxo-1-oxa-3,8-diazaspiro[4.5]decan-8-yl)-2-(trifluoromethyl)nicotinonitrile] | 6.19
26 | C=CC(=O)N1CCN(C2CN(c3cc(N4CCC5(CC4)OC(=O)NC54CCC4)nc(C(F)(F)F)c3C#N)C2)CC1 [Compound 3-034, 4-(3-(4-acryloylpiperazin-1-yl)azetidin-1-yl)-6-(12-oxo-11-oxa-8,13-diazadispiro[3.0.55.34]tridecan-8-yl)-2-(trifluoromethyl)nicotinonitrile] | 2.45
